From patent US20220009918A1, “Chemical Compounds” (GlaxoSmithKline Intellectual Property Development Limited, priority 2018, published 2022)

Target: T1, human H-PGDS (Homo sapiens, UniProt O60760)
T1 construct: Full length human H-PGDS cDNA (Invitrogen Ultimate ORF IOH13026) was amplified by PCR; 6-His (N); TEV protease cleavage site (N); made in house; host or cells: E. coli BL21 (DE3*) for H-PGDS; Sf9 insect cells (baculovirus) for COX-2
Experiment: H-PGDS RapidFire high throughput mass spectrometry assay
Format: biochemical
Details: inhibition of conversion of PGH2 to PGD2 by H-PGDS; mean pIC50; read-out: Potency Range (mean pIC50) (converted)
Summary of the method: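 Full-length His-tagged human H-PGDS from E. coli converted PGH2, generated in situ (~10 μM burst) from arachidonic acid by FLAG-tagged human COX-2 (Sf9-expressed). PGD2 and PGF2α (substrate surrogate) were measured by RapidFire SPE-triple quadrupole MS. Percent conversion was calculated, and inhibition was taken as reduced conversion.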

T1 sequence (O60760 whole entry): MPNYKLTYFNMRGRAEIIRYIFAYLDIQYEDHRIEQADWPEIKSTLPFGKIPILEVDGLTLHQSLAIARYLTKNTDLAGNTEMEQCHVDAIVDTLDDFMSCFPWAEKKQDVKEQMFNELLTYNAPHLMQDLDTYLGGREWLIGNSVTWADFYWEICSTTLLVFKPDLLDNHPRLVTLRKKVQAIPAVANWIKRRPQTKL

Question: How did the IC50 turn out when `O=C(N[C@@H]1C(=O)N[C@H]2COC[C@H]21)c1cnc(-c2cc(F)cc(Cl)c2)s1` (racemic) [Example 52, Racemic 2-(3-Chloro-5-fluorophenyl)-N-((3S,3aR,6aR)-2-oxohexahydro-1H-furo[3,4-b]pyrrol-3-yl)thiazole-5-carboxamide; and 2-(3-Chloro-5-fluorophenyl)-N-((3R,3aS,6aS)-2-oxohexahydro-1H-furo[3,4-b]pyrrol-3-yl)thiazole-5-carboxamide] was run?
Answer: Its IC50 is 0.0102 to 0.1 µM.

Question: With `C[C@]1(NC(=O)c2cnc(-c3cc(F)cc(Cl)c3)s2)CCNC1=O` [Example 72, (S)-2-(3-Chloro-5-fluorophenyl)-N-(3-methyl-2-oxopyrrolidin-3-yl)thiazole-5-carboxamide] as the molecule, how does the IC50 read?
Answer: Its IC50 is 0.0102 to 0.1 µM.

Question: How did the IC50 turn out when `O=C1NCC[C@@H]1NS(=O)(=O)c1cnc(-c2ccccc2)s1` [Example 86, (S)-N-(2-Oxopyrrolidin-3-yl)-2-phenylthiazole-5-sulfonamide] was run?
Answer: The IC50 was greater than 10 µM.

Question: `Cc1cccc(-c2ncc(C(=O)N[C@H]3CCNC3=O)s2)c1` [Example 5, (S)-N-(2-Oxopyrrolidin-3-yl)-2-(m-tolyl)thiazole-5-carboxamide] was tested. Which IC50 did it give?
Answer: The IC50 was 0.00102 to 0.01 µM.

Question: How did the IC50 turn out when `CCC1(CC)CNC(=O)C1NC(=O)c1cnc(-c2cc(F)cc(Cl)c2)s1` (racemic) [Example 23, Racemic 2-(3-Chloro-5-fluorophenyl)-N-(4,4-diethyl-2-oxopyrrolidin-3-yl)thiazole-5-carboxamide] was run?
Answer: Its IC50 is 0.102 to 1 µM.

Question: Which IC50 does the source give for `C[C@H]1C[C@H](NC(=O)c2cnc(-c3cc(F)cc(Cl)c3)s2)C(=O)N1` [Example 81, 2-(3-Chloro-5-fluorophenyl)-N-((3S,5S)-5-methyl-2-oxopyrrolidin-3-yl)thiazole-5-carboxamide] here?
Answer: The IC50 was 0.00102 to 0.01 µM.

Question: With `CC1(C)C[C@H](NC(=O)c2cnc(-c3cc(F)cc(Cl)c3)s2)C(=S)N1` [Example 85, (S)-2-(3-Chloro-5-fluorophenyl)-N-(5,5-dimethyl-2-thioxopyrrolidin-3-yl)thiazole-5-carboxamide] as the molecule, how does the IC50 read?
Answer: The IC50 was 0.00102 to 0.01 µM.

Question: How did the IC50 turn out when `CC1(C)CC(NC(=O)c2cnc(-c3cc(F)cc(Cl)c3)[se]2)C(=O)N1` (racemic) [Example 82, Racemic 2-(3-Chloro-5-fluorophenyl)-N-(5,5-dimethyl-2-oxopyrrolidin-3-yl)-1,3-selenazole-5-carboxamide] was run?
Answer: The IC50 was 0.0102 to 0.1 µM.

Question: How did the IC50 turn out when `O=C(N[C@H]1CCNC1=O)c1cnc(-c2cc(F)cc(C(F)F)c2)s1` [Example 12, (S)-2-(3-(Difluoromethyl)-5-fluorophenyl)-N-(2-oxopyrrolidin-3-yl)thiazole-5-carboxamide] was run?
Answer: Its IC50 is 0.00102 to 0.01 µM.

Question: `O=C(N[C@@H]1CC2(COC2)NC1=O)c1cnc(-c2cc(F)cc(Cl)c2)s1` [Example 56, (R)-2-(3-Chloro-5-fluorophenyl)-N-(6-oxo-2-oxa-5-azaspiro[3.4]octan-7-yl)thiazole-5-carboxamide] was tested. Which IC50 did it give?
Answer: The IC50 was 0.102 to 1 µM.

Question: For `O=C(N[C@H]1CCNC1=O)c1cnc(-c2cccc(O)c2)s1` [Example 69, (S)-2-(3-Hydroxyphenyl)-N-(2-oxopyrrolidin-3-yl)thiazole-5-carboxamide], which IC50 is on record?
Answer: The IC50 was 0.0102 to 0.1 µM.

Question: How did the IC50 turn out when `COc1cccc(-c2ncc(C(=O)N[C@H]3CCNC3=O)s2)c1` [Example 68, (S)-2-(3-Methoxyphenyl)-N-(2-oxopyrrolidin-3-yl)thiazole-5-carboxamide] was run?
Answer: Its IC50 is 0.0102 to 0.1 µM.

Question: How did the IC50 turn out when `Cc1cccc(-c2ncc(C(=O)N[C@H]3CCNC3=O)s2)n1` [Example 46, (S)-2-(6-Methylpyridin-2-yl)-N-(2-oxopyrrolidin-3-yl)thiazole-5-carboxamide] was run?
Answer: Its IC50 is 0.102 to 1 µM.

Question: For `Cc1cc(-c2ncc(C(=O)N[C@H]3CCNC3=O)s2)cc(C(F)F)c1` [Example 48, (S)-2-(3-(Difluoromethyl)-5-methylphenyl)-N-(2-oxopyrrolidin-3-yl)thiazole-5-carboxamide], which IC50 is on record?
Answer: Its IC50 is 0.0102 to 0.1 µM.
